Where two headings read alike, the source gives them in different places.
Legend:
YAP/TAZ = assay: Screening: YAP/TAZ activity reporter (8xGTIIC plasmid) assay in NUGC3 cells (luminescence % of DMSO); assay type: cell-based, human
Description: (§1) Human gastric cancer cell line NUGC3 was cultured in a DMEM medium (high glucose with L-glutamine and phenol red, produced by FUJIFILM Wako Pure Chemical Corporation) containing 10% fetal bovine serum (produced by Thermo Fisher Scientific Inc.) and penicillin-streptomycin (produced by FUJIFILM Wako Pure Chemical Corporation) (this medium is simply referred to below as “DMEM+10% FBS+1×P/S”). Then, the NUGC3 cells were seeded in a 60-mm culture dish (produced by BioLite) so that the cells were 80% confluent after 24 hours. Subsequently, 5 μg of a reporter plasmid and 15 μL of a lipofection reagent (transIT-LT1, produced by Mirus Bio LLC) were mixed in 500 μL of Opti-MEM medium (produced by Thermo Fisher Scientific, Inc.) to form a complex, which was added to the medium in which the NUGC3 cells were cultured in the 60-mm culture dish. For use as the reporter plasmid, 5 μg of a polyglutamine luciferase reporter was introduced (in the polyglutamine luciferase reporter, a Renilla luciferase expressed in the IRES was located as an internal standard downstream of the sequence of a firefly luciferase sequence to which polyglutamine was added). Alternatively, a YAP/TAZ activity reporter was used by simultaneously introducing 3 μg of 8×GTIIC plasmid and 2 μg of a Renilla luciferase reporter as an internal standard. After another 24 hours, the cells were exfoliated with a 0.05 w/v % trypsin-0.53 mmol/l EDTA-4Na solution (produced by FUJIFILM Wako Pure Chemical Corporation), and then seeded in a 96-well plate (produced by BioLite) so that the cells were 80% confluent after 24 hours. Twenty-four hours after seeding in the 96-well plate, the medium in each well was replaced with 100 μL of a medium (DMEM+10% FBS+an antibiotic) containing 10 μM or 5 μM of a compound for evaluation. After another 24 hours, the medium containing the compound was removed, and the 96-well plate was transferred on ice. Each well was washed with 100 μL of phosphate buffer (PBS, produced by FUJIFILM Wako Pure Chemical Corporation). Thereafter, 20 μL of Passive Lysis Buffer (1×) contained in a Dual-Luciferase Reporter Assay System (produced by Promega Corporation) was added. The plate was then gently shaken for 15 minutes at room temperature to lyse the cells. After confirming that the cells were lysed, 10 μL of the lysate was transferred from each well to each corresponding well of a white 96-well plate (produced by Greiner Bio-one). To each well of the white 96-well plate was added 100 μL of a mixture of a Luciferase Assay Buffer II and Luciferase Assay Substrate contained in the Dual-Luciferase Reporter Assay System (produced by Promega Corporation), whereby the luminescence of the firefly luciferase was induced, and the luminescence intensity was detected with a microluminometer (produced by Berthold Japan K.K.). Subsequently, 100 μL of a mixture of Stop & Glo Buffer and Stop & Glo Substrate contained in the Dual-Luciferase Reporter Assay System (produced by Promega Corporation) was added, whereby the luminescence of firefly luciferase was quenched while the luminescence of Renilla luciferase was induced, and the luminescence intensity was detected with a microluminometer (produced by Berthold Japan K.K.) in a manner similar to the above. The ratio of the luminescence intensity of the firefly luciferase and the luminescence intensity of the Renilla luciferase was calculated, and the luminescence intensity (%) of the wells containing each compound was calculated with the luminescence intensity of the well containing DMSO (dimethyl sulfoxide, used as a solvent for the compound liquids) taken as 100%. […] Unless otherwise specified, the measured values in the table represent the results obtained by evaluation with the addition of 10 μM of each compound for evaluation.

[1] = test system: polyglutamine luciferase reporter; assay: Screening: polyglutamine luciferase reporter assay in NUGC3 cells (luminescence % of DMSO); assay type: cell-based, human
Description: as §1

[2] = NUGC3 cells, luminescence relative to DMSO, concentration not given
[3] = YAP/TAZ activity reporter (8×GTIIC), NUGC3 cells, luminescence relative to DMSO, concentration not given
[4] = polyglutamine luciferase reporter, NUGC3 cells, luminescence relative to DMSO, concentration not given

Row | SMILES | 8×GTIIC (YAP/TAZ; [3]) [%] | Polyglutamine [1, 4] [%] | also measured
1 | CCc1ccc(C2CC(c3ccc(C)cc3)=NC2S(=O)(=O)c2ccccc2)cc1CC (stereo not drawn) [PVZF0066] | – | – | 8×GTIIC (YAP/TAZ; [2]): 65.56%; Polyglutamine [1, 2]: 56.14%
2 | O=S(=O)(CCc1ccccc1)c1ccc2ccccc2c1 [PVZF2014] | 59.08 | 40.32 | –
3 | O=S(=O)(CCC1CCCCC1)c1ccc(-c2ccccc2)cc1 [PVZF2033] | 69.36 | 67.7 | –
4 | Cc1ccc(C)c(S(=O)(=O)C2CCC(CS(=O)(=O)c3ccccc3)CC2)c1 (single isomer, unassigned) [SA015] | 69.21 | 60.36 | –
5 | CCc1ccc(C2CC(c3ccc(C)cc3)=NC2S(=O)(=O)c2ccccc2)cc1 (stereo not drawn) [PVZF0089] | – | – | 8×GTIIC (YAP/TAZ; [2]): 70.13%; Polyglutamine [1, 2]: 67.1%
6 | CCCCCCS(=O)(=O)c1ccc(C(C)(C)CC)cc1 [PVZF2038] | 56.84 | 58.2 | –
7 | O=S(=O)(CC1CCCCC1)c1ccccc1 [PVZF2048] | 69.86 | 73.33 | –
8 | Cc1ccc(C2=NC(S(=O)(=O)c3ccccc3C)C(c3ccc(C)cc3)C2)cc1 (stereo not drawn) [PVZF0064] | – | – | 8×GTIIC (YAP/TAZ; [2]): 93.3%; Polyglutamine [1, 2]: 58.28%
9 | Cc1ccc(C2=NC(S(C)(=O)=O)C(c3ccc(C)cc3)C2)cc1 (stereo not drawn) [PVZF0082] | – | – | 8×GTIIC (YAP/TAZ; [2]): 172.9%; Polyglutamine [1, 2]: 87.78%
10 | Cc1ccc(C(C)(C)C)cc1S(=O)(=O)C1CCC(NS(=O)(=O)c2ccccc2)CC1 (stereo not drawn) [SA019] | 66.45 | 55.62 | –
11 | CCC(C)(C)c1ccc(S(=O)(=O)CC2CCCCC2)cc1 [PVZF2039] | 60 | 53.6 | –
12 | CCCC(=O)C1CCC(CS(=O)(=O)c2ccc(C)cc2C)CC1 (stereo not drawn) [SA025] | 46.27 | 49.45 | –
13 | CC1CC(C)CC(S(=O)(=O)C2CCC(CS(=O)(=O)c3ccccc3)CC2)C1 (stereo not drawn) [SA090] | 64.02 | 84.73 | –
14 | CC(C)(C)c1cc(C(C)(C)C)cc(S(=O)(=O)CC2CCC(S(C)(=O)=O)CC2)c1 (stereo not drawn) [SA070] | 109.7 | 59.04 | –
15 | CCc1cccc(C2CC(c3ccccc3)=NC2S(=O)(=O)c2ccccc2)c1CC (stereo not drawn) [PVZF0046] | – | – | 8×GTIIC (YAP/TAZ; [2]): 54.68%; Polyglutamine [1, 2]: 47.04%
16 | CCCc1cc(C)c(C(C)C)cc1S(=O)(=O)CC1CC(C)(C)CC(C)(C)C1 [SA003] | 46.84 | 37.79 | –
17 | CS(=O)(=O)C1CCC(CS(=O)(=O)c2ccc3c(c2)CCCC3)CC1 (stereo not drawn) [SA046] | 83.81 | 75.23 | –
18 | CCS(=O)(=O)C1CCC(CS(=O)(=O)c2ccc(C)cc2C)CC1 (stereo not drawn) [SA075] | 95.02 | 110.7 | –
19 | CCCCCCS(=O)(=O)c1ccc(C(C)(C)C)cc1 [PVZF2020] | 45.04 | 36.76 | –
20 | CCc1cccc(C2CC(c3ccc(C)cc3)=NC2S(=O)(=O)c2ccccc2C)c1CC (stereo not drawn) [PVZF0059] | – | – | 8×GTIIC (YAP/TAZ; [2]): 38.46%; Polyglutamine [1, 2]: 43.94%
21 | Cc1ccc(S(=O)(=O)CC2CCC(C3CC3)CC2)c(C)c1 (stereo not drawn) [SA057] | 73.76 | 79.6 | –
22 | CC(C)c1cc(C(C)C)c(S(=O)(=O)CC(c2ccccc2)c2ccc(-c3ccccc3)cc2)c(C(C)C)c1 (stereo not drawn) [PVZF2083] | 108.4 | 69 | –
23 | Cc1cc(C)c(C)c(S(=O)(=O)CC2CCC(S(C)(=O)=O)CC2)c1C (stereo not drawn) [SA093] | 39.06 | 38.43 | –
24 | Cc1ccc(C2=NC(S(=O)(=O)c3ccccc3)C(c3ccc(C)cc3)C2)cc1 (stereo not drawn) [PVZF0086] | – | – | 8×GTIIC (YAP/TAZ; [2]): 57.06%; Polyglutamine [1, 2]: 58.32%
25 | O=S(=O)(NCCC1=CCCCC1)c1ccc(-c2ccccc2)cc1 [PVZF2035, N-(2-(cyclohexy-1-en-1-yl)ethyl)-[1,1′-biphenyl]-4-sulfonamide] | – | – | 8×GTIIC (YAP/TAZ): 71.12%; Polyglutamine [1]: 58.85%
26 | Cc1cc(C)cc(S(=O)(=O)CC2CCC(C3CC3)CC2)c1 (stereo not drawn) [SA032] | 88.64 | 80.29 | –
27 | Cc1cccc(S(=O)(=O)CC2CCC(C3CC3)CC2)c1C (stereo not drawn) [SA030] | 73.56 | 86.26 | –

Source: patent publication US20230210834A1, “RNA METHYLTRANSFERASE INHIBITOR, SCREENING METHOD THEREFOR, ANTI-CANCER AGENT EFFICACY ASSESSMENT MARKER, AND KIT FOR EFFECTIVELY PREDICTING FTSJ1 INHIBITOR” (National University Corporation Okayama University, priority 2019, published 2023)
